Measured values as given in ChEMBL document CHEMBL5303573, “Mapping human microbiome drug metabolism by gut bacteria and their genes” (Nature, 2019).

Assays:
[1] = The drug is tested on Escherichia coli strain: BW25113 for biotransformation. The drug concentrations were measured before and after a 12-h incubation by liquid-chromatography-coupled mass spectrometry (LC–MS); settings: 2 µM
[2] = The drug is tested on Providencia rettgeri strain: DSM1131 for biotransformation. The drug concentrations were measured before and after a 12-h incubation by liquid-chromatography-coupled mass spectrometry (LC–MS); format: ADME; set-up: dose 2 uM, timepoint 0 vs 12 hours; settings: 2 µM
[3] = The drug is tested on Subdoligranulum variabile strain: DSM15176 for biotransformation. The drug concentrations were measured before and after a 12-h incubation by liquid-chromatography-coupled mass spectrometry (LC–MS); settings: 2 µM
[4] = The drug is tested on Clostridium asparagiforme strain: DSM15981 for biotransformation. The drug concentrations were measured before and after a 12-h incubation by liquid-chromatography-coupled mass spectrometry (LC–MS); format: ADME; set-up: dose 2 uM, timepoint 0 vs 12 hours; settings: enterocloster asparagiformis, 2 µM
[5] = The drug is tested on Clostridium scindens strain: ATCC35704 for biotransformation. The drug concentrations were measured before and after a 12-h incubation by liquid-chromatography-coupled mass spectrometry (LC–MS); settings: 2 µM
[6] = The drug is tested on Enterococcus faecalis strain: V583 for biotransformation. The drug concentrations were measured before and after a 12-h incubation by liquid-chromatography-coupled mass spectrometry (LC–MS); settings: 2 µM
[7] = The drug is tested on Anaerotruncus colihominis strain: DSM17241 for biotransformation. The drug concentrations were measured before and after a 12-h incubation by liquid-chromatography-coupled mass spectrometry (LC–MS); settings: 2 µM
[8] = The drug is tested on Bacteroides pectinophilus strain: ATCC43243 for biotransformation. The drug concentrations were measured before and after a 12-h incubation by liquid-chromatography-coupled mass spectrometry (LC–MS); settings: 2 µM
[9] = The drug is tested on Dorea formicigenerans strain: ATCC27755 for biotransformation. The drug concentrations were measured before and after a 12-h incubation by liquid-chromatography-coupled mass spectrometry (LC–MS); settings: 2 µM
[10] = The drug is tested on Eggerthella lenta strain: ATCC25559 for biotransformation. The drug concentrations were measured before and after a 12-h incubation by liquid-chromatography-coupled mass spectrometry (LC–MS); settings: 2 µM
[11] = The drug is tested on Enterobacter cancerogenus strain: ATCC35316 for biotransformation. The drug concentrations were measured before and after a 12-h incubation by liquid-chromatography-coupled mass spectrometry (LC–MS); settings: 2 µM
[12] = bifidobacterium adolescentis, 12 h, 2 µM
Description: The drug is tested on Bifidobacterium adolescentis strain: ATCC 15703 for biotransformation. The drug concentrations were measured before and after a 12-h incubation by liquid-chromatography-coupled mass spectrometry (LC–MS)

[13] = The drug is tested on Bacteroides uniformis strain: ATCC8492 for biotransformation. The drug concentrations were measured before and after a 12-h incubation by liquid-chromatography-coupled mass spectrometry (LC–MS); settings: 2 µM
[14] = The drug is tested on Bifidobacterium ruminantium strain: fecal isolate for biotransformation. The drug concentrations were measured before and after a 12-h incubation by liquid-chromatography-coupled mass spectrometry (LC–MS); settings: 2 µM
[15] = bacteroides eggerthii, 12 h, 2 µM
Description: The drug is tested on Bacteroides eggerthii strain: DSM20697 for biotransformation. The drug concentrations were measured before and after a 12-h incubation by liquid-chromatography-coupled mass spectrometry (LC–MS)

[16] = The drug is tested on Clostridium sp. strain: fecal isolate for biotransformation. The drug concentrations were measured before and after a 12-h incubation by liquid-chromatography-coupled mass spectrometry (LC–MS); settings: 2 µM
[17] = The drug is tested on Bacteroides ovatus strain: ATCC8483 for biotransformation. The drug concentrations were measured before and after a 12-h incubation by liquid-chromatography-coupled mass spectrometry (LC–MS); settings: 2 µM
[18] = The drug is tested on Ruminococcus gnavus strain: ATCC29149 for biotransformation. The drug concentrations were measured before and after a 12-h incubation by liquid-chromatography-coupled mass spectrometry (LC–MS); settings: mediterraneibacter gnavus, 2 µM
[19] = The drug is tested on Ruminococcus torques strain: ATCC27756 for biotransformation. The drug concentrations were measured before and after a 12-h incubation by liquid-chromatography-coupled mass spectrometry (LC–MS); format: ADME; set-up: dose 2 uM, timepoint 0 vs 12 hours; settings: 2 µM
[20] = The drug is tested on Bacteroides dorei strain: DSM17855 for biotransformation. The drug concentrations were measured before and after a 12-h incubation by liquid-chromatography-coupled mass spectrometry (LC–MS); settings: phocaeicola dorei, 2 µM

Row | Compound | Bacterial Biotransformation [1] | Bacterial Biotransformation [2] | Bacterial Biotransformation [3] | Bacterial Biotransformation [4] | Bacterial Biotransformation [5] | Bacterial Biotransformation [6] | Bacterial Biotransformation [7] | Bacterial Biotransformation [8] | Bacterial Biotransformation [9] | Bacterial Biotransformation [10] | Bacterial Biotransformation [11] | Bacterial Biotransformation [12] | Bacterial Biotransformation [13] | Bacterial Biotransformation [14] | Bacterial Biotransformation [15] | Bacterial Biotransformation [16] | Bacterial Biotransformation [17] | Bacterial Biotransformation [18] | Bacterial Biotransformation [19] | Bacterial Biotransformation [20]
1 | CCc1oc2ccccc2c1C(=O)c1cc(Br)c(O)c(Br)c1 [BENZBROMARONE] | Compound NOT metabolized | Compound NOT metabolized | Compound NOT metabolized | Compound NOT metabolized | Compound NOT metabolized | Compound NOT metabolized | Compound NOT metabolized | Compound NOT metabolized | Compound NOT metabolized | Compound NOT metabolized | Compound NOT metabolized | Compound NOT metabolized | Compound NOT metabolized | Compound NOT metabolized | Compound NOT metabolized | Compound NOT metabolized | Compound NOT metabolized | Compound NOT metabolized | – | –
2 | CCN(CC)C(=O)/C(C#N)=C/c1cc(O)c(O)c([N+](=O)[O-])c1 [ENTACAPONE] | Compound metabolized | – | Compound metabolized | Compound metabolized | Compound metabolized | Compound metabolized | Compound metabolized | Compound metabolized | Compound metabolized | Compound metabolized | Compound metabolized | Compound metabolized | Compound metabolized | Compound metabolized | Compound metabolized | Compound metabolized | Compound metabolized | Compound metabolized | Compound metabolized | Compound metabolized
3 | CC(NC(C)(C)C)C(=O)c1cccc(Cl)c1 (centres undefined) [BUPROPION] | Compound metabolized | – | Compound NOT metabolized | Compound NOT metabolized | Compound NOT metabolized | Compound NOT metabolized | Compound NOT metabolized | – | Compound NOT metabolized | Compound NOT metabolized | Compound NOT metabolized | – | Compound NOT metabolized | Compound metabolized | Compound metabolized | Compound NOT metabolized | Compound metabolized | Compound NOT metabolized | Compound NOT metabolized | Compound NOT metabolized
